# Patent US8007779B2, “Nucleic acid constructs and cells, and methods utilizing same for modifying the electrophysiological function of excitable tissues” (GeneGrafts Ltd., priority 2000, dated 2011)
# Several values for one entry are separate records, joined by “and”; a condition that tells them apart may be missing. Equal entries are not always repeated. Entries after “also recorded” stand apart in the source; their conditions may differ.
# What was measured:
# [1] = system: cultured neuronal network; assay: Spiking activity of cultured cortical neuronal network on multi-electrode array (MEA); format: cell-based, rat; settings: 5 μM bicuculin, 10 μM DNQX or 20 μM APV added to the culture
# Procedure: Cortical neurons were obtained from newborn rats within 24 hours from birth, following standard harvesting procedures (Culturing nerve cells, 2nd edition, Gary Ranker and Kimberly Goslin, 1998). The cortex tissue was digested enzymatically and mechanically dissociated and the neurons were plated directly onto substrate-integrated multi-electrode array (MEA) dishes prepared as described below. The cultures were bathed in MEM which was supplemented with heat-inactivated horse serum (5%), Glutamine (0.5 mM), Glucose (20 mM), and Gentamycin (10 μg/ml), and maintained in a tissue culture incubator at 37° C., 5% CO2 and 95% during the recording phases. Half of the medium was exchanged twice a week and the experiments were performed during the third week following plating, thus allowing complete maturation of the neurons (FIGS. 1a-b).
# Arrays of 60 Ti/Au/TiN electrodes, 30 μm in diameter, spaced 200 μm from each other (MultiChannelSystems (MCS), Reutlingen, Germany) were utilized in the present study. The insulation layer (silicon nitride), was pretreated with poly-L-lysine forming a good surface for network development. A commercial 60-channel amplifier (B-MEA-1060, MCS, Reutlingen, Germany) with frequency limit range of 10-3000 Hz and a gain of ×1024 was utilized for signal amplification. The amplifier was connected to MCPPlus filter amplifiers (Alpha Omega, Nazareth, Israel) for further amplification (×10 to ×20). Stimulation through the MEA was performed using a dedicated 8-channel stimulus generator (MCS, Reutlingen, Germany).
# In addition, the micro-incubation environment was arranged to support long-term recordings from MEA dishes. This was achieved by streaming a filtered, heated and humidified air/CO2 (95/5%) gas mixture, and by electrically heating the MEA platform to 37° C. Data is digitized using two 5200a/526 A/D boards (Microstar Laboratories, WA, USA).
# Following electrical functionality determination, the neuronal network cultures were incubated with various electrical conduction blockers.
# [2] = system: neonatal rat (Sprague Dawley) ventricular myocytes; assay: Spontaneous beating rate of neonatal rat ventricular myocyte/fibroblast co-cultures (MEA), with CTx; format: cell-based
# Source text: Cell co-culturing—Primary monolayer cultures of neonatal rat (Sprague Dawley) ventricular myocytes were generated as previously described [Nuss H B, Marban E, Johns D C. Overexpression of a human potassium channel suppresses cardiac hyperexcitability in rabbit ventricular myocytes. J Clin Invest. 1999; 103:889-96]. Briefly, following excision, the ventricles were minced and treated with RDB (IIBR, Ness-Ziona, Israel). Following centrifugation, dispersed cells were suspended in culture medium (Ham's F10), 5% fetal calf serum, 5% horse serum, 100 U/ml penicillin, […] streptomycin (all from Biological industries, Beit Haemek, Israel), 1 mM CaCl2 and 50 mg/100 ml bromodeoxyuridine (BrdU, Sigma). The cells were then cultured on gelatin coated (0.1%) microelectrode culture plates at a density of 1.5×10^6 cells/ml.
# Once a well synchronous spontaneous activity was established in the cardiomyocyte cultures, fibroblasts (naïve, or Kv1.3 expressing fibroblasts) were seeded in a diffuse manner into the cardiomyocytic cultures. Two groups were studied: The cultures were studied daily, and the electrophysiological properties, essentially the spontaneous beating rate of the culture, was assessed at baseline and following application of the specific Kv1.3 blocker, Charybdotoxin (CTx), at increasing dosages (1, 10, 100 nM). […]
# [3] = system: cardiomyocytes co-cultured with fibroblasts (NIH 3T3) transfected with voltage gated potassium channel Kv1.3; assay: Spontaneous activity rate of cardiomyocyte cultures and fibroblast co-cultures on MEA under CTX; format: cell-based, rat
# Procedure: (§1) Monolayer cultures of neonatal rat ventricular cardiomyocytes (NRVM) were prepared as previously described (Rubin et al, 1995), with some modifications. The cultures were maintained in a humidified incubator under a controlled environment of 5% CO2+95% air at 37° C.; fresh medium was replaced on alternating days.
# (§2) Fibroblasts from the NIH 3T3 cell line were transfected with an expression cassette which included a mutant voltage gated potassium channel (Kv1.3) coding sequence (GeneBank Accession number H18261) placed under the transcription control of a constitutive promoter using standard procedures. Fibroblast cultures not transfected with the channel coding sequence were produced from the NIH 3T3 cell-line.
# (§3) Once well synchronous spontaneous activity was established in the cardiomyocyte cultures, fibroblasts transfected with the Kv1.3 channel coding sequence or non-transfected fibroblasts were added to the cultures. Two different methods where used to seed the fibroblasts. In the first method, the fibroblast were suspended in trypsin for 5 minutes following which they were seeded in a diffuse pattern in the cardiomyocytic cultures (FIG. 4a). In the second method, the fibroblasts where pipetted up and down through a 5 ml pipette for 2 minutes and seeded in the cardiomyocytic cultures thus were forming clusters of fibroblasts (FIG. 4b).
# (§4) Extracellular recordings from cultured cardiomyocytes were performed on a PC-based Microelectrode Data Acquisition System (Multi Channel Systems, Reutlingen, Germany), consisting of Multi-Electrode Array (MEA), pre- and filter-amplifiers, data acquisition board, and software. The MEA consists of a 50×50 mm glass substrate, in the center of which is an embedded 0.7×0.7 or 1.4×1.4 mm matrix of 60 Titanium-nitride, gold contacts 10 or 30 μm diameter electrodes insulated with silicone nitride, with inter-electrode distance of 100 or 200 μm (there are no electrodes in the corners of the matrix). Data were recorded at 10-25 KHz with 12-bit precision. During the recording sessions, the MEA (removed from the regular incubator) was constantly perfused with a gas mixture consisting of 5% CO2+95% air. Temperature was kept at 37±0.10° C.
# Electrical activity of the cultures was recorded on day one immediately prior to seeding of the fibroblasts and then daily until the cultures died or no spontaneous activity was detected. During the daily measurements the cultures where subjected to increasing concentrations (0.1, 1, 10, 100 nM) of CTX.
# Measurement were performed during spontaneous activity from three groups of cardiomyocyte cultures: cultures without fibroblasts, cultures with NIH 3T3 fibroblasts (seeded diffusely) and cultures with transfected NIH 3T3 fibroblasts (expressing the mutant voltage gated potassium channel coding sequence).
# [4] = system: neonatal rat ventricular cardiomyocytes (NRVM); assay: Synchronous activity, conduction block, conduction velocity and signal amplitude of cardiomyocyte/fibroblast co-cultures on MEA; format: cell-based
# Procedure: as §1, §2, §3, §4
# Recorded data was filtered using cutoff frequency of 2 KHz (Fast et al, 1993). The filtered signal was then differentiated digitally to determine the Local Activation Time (LAT) at each electrode, corresponding to dF/dtmin (where F is the filtered signal) (Dolber and Spach, 1986). Color-coded activation maps were constructed by interpolating the LAT values for the sites between the electrodes, and by extrapolating the LAT values for the 4 corners of the MEA matrix. Activation maps were plotted by means of Matlab standard 2-d plotting function (pcolor) (Matlab 5.3 Mathworks Incorporated©). Conduction velocity was calculated by standard methods (Bayly et al, 1988).
# Conduction block quantification is central to evaluating conduction block development in the cell cultures, and to evaluating reversibility of the conduction block following CTX application. A conduction block was determined using the following algorithm: […]
# Electrical activity of the cultures was recorded on day one immediately prior to seeding of the fibroblasts and then daily until the cultures died or no spontaneous activity was detected. […]
# [5] = system: right ventricular free wall; assay: In vivo local ventricular effective refractory period (ERP) after cell grafting, swine model; design: species or system pig; settings: for ventricular ERP following local application of MTx: swine, sites grafted with transfected fibroblasts, all CLs (FIG. 20b)
# Procedure: Swine model—Three domestic pigs (20-30) kg were studied. Anesthesia was induced with 5-10 ml of intravenous sodium pentothal 2.5% solution and maintained with inhaled isoflurane (2%) in oxygen. Following a right thoracotomy, each heart was exposed and a total of 6×10^6 cells were transplanted at a total of 7 different locations in the anterior free wall of the right ventricle. Cells were delivered using a 25 g needle using an injection volume of 250 μl. The sites of cell transplantation were marked with a suture. To prevent graft rejection, the animals were treated with an immunosuppressive regimen (cyclosporine, 10 mg/kg/d and methylprednisolone, 3 mg/kg/d). 7 days following cell transplantation, a second thoracotomy and a detailed epicardial electrophysiological study were performed.
# The ERP in the pigs was measured in a similar manner to that in the rats but using slower basic stimulation intervals (CLs of 350, 400 and 500 ms). The ERP was measured at the site of cell transplantation as well as in remote sites and also following local intramyocardial injection of Margatoxin at the examined sites.
# [6] = system: left ventricular myocardium; assay: In vivo local ventricular effective refractory period (ERP) after cell grafting, rat model; settings: for local ventricular ERP at the site of cell transplantation after MTx: study group (Kv1.3 fibroblasts, n=10), mean±SEM (FIG. 19b)
# Procedure: Rat model—Male Sprague-Dawley rats weighing 200-250 gr were anesthetized using A Xylasine (0.5 mg/kg) and Ketamine (0.5 mg/kg) preparation [see Example 7]. The animals were then intubated and ventilated using a Harvard small-animal mechanical respirator. The chest wall was opened using a left thoracotomy and the heart was exposed. After removal of the pericardium, a total of 6×10^6 cells (either fibroblasts without transfections in the control group or fibroblast overexpressing the KV1.3 channel in the study group) were transplanted into the anterior aspect of the left ventricular wall using a 28 g needle. In order to prevent graft rejection, all animals were treated with a daily dose of cyclosporin (10 mg/kg) and methyprednisolone (2 mg/kg). The animals underwent a detailed electrophysiological study (see below) immediately before cell grafting and 7 days post-transplantation.
# In vivo electrophysiological studies—The electrophysiological study in rats included a standard ventricular pacing protocol to determine the local myocardial effective refractory period (ERP). The ERP was evaluated by applying a train of 20 stimuli at a fixed cycle-length of 200 ms (S1), followed by a single premature stimulus (S2). The S1-S2 coupling interval was gradually shortened. The ERP was determined as the shortest S1-S2 coupling interval still capable of eliciting a ventricular response. Stimuli were generated using a computer controlled STG 1004 stimulus generator with the matching MC-Stim software (both from Multi Channel Systems, Reutlingen, Germany).
# The ERP was measured at the site of cell transplantation and at remote sites, both prior to cell transplantation and seven days following cell grafting. In order to dissect the role of the overexpressed channel in altering the local myocardial electrophysiological properties, the ERP was measured also at each site following application of 9 μg/kg of Margatoxin (Alomone Labs, Jerusalem, Israel), a specific Kv 1.3 channel blocker as an intraperitoneal bolus.
compound,measurement,setting,value
"N[C@H](CCCP(=O)(O)O)C(=O)O [APV, D-2-amino-5-phosphonovalerate]",spiking activity in cultured neuronal network,[1],completely abolished
O=[N+]([O-])c1cc2nc(O)c(O)nc2cc1[N+](=O)[O-] [DNQX],spiking activity in cultured neuronal network,[1],completely abolished
CN1CCc2cc3c(cc2[C@H]1[C@@H]1OC(=O)c2c1ccc1c2OCO1)OCO3 [bicuculin],spiking activity in cultured neuronal network,[1],completely abolished
Charybdotoxin (QFTNVSCTTSKECWSVCQRLHNTSRGKCMNKKCRCYS) [CTX],beating frequency after CTx application,[2]; control group (naive fibroblasts),did not significantly alter
same,reversibility of the negative chronotropic effect by CTx,"[2]; study group (Kv1.3 transfected fibroblasts), CTx 100 nM (FIG. 18b)",full reversibility
same,increase in spontaneous activity rate,"[3]; CTX 10 nM, cardiomyocyte cultures or cardiomyocytes co-cultured with untransfected fibroblasts",did not increase
same,increase in spontaneous activity rate,"[3]; CTX 10 nM, co-cultures which included the Kv1.3 transfected fibroblasts",20%
same,increase in spontaneous activity rate,"[3]; CTX 100 nM, cardiomyocyte cultures or cardiomyocytes co-cultured with untransfected fibroblasts",up to 15%
same,increase in spontaneous activity rate,"[3]; CTX 100 nM, co-cultures which included the Kv1.3 transfected fibroblasts",55%
same,activation map after CTX,"[4]; co-culture with non-transfected fibroblasts, five days after seeding, CTX 10 nM (FIG. 12d)",no appreciable change
same,conduction block factor after Charybdotoxin,"[4]; co-cultures including fibroblasts transfected with Kv1.3, n=10 (FIG. 11)",substantially decreased
same,conduction block factor after Charybdotoxin,"[4]; co-cultures including non-transfected fibroblasts, n=9 (FIG. 11)",minimal response
same,conduction block after CTX treatment,"[4]; co-cultures with Kv1.3 transfected fibroblasts, CTX 10 nM (FIG. 7d)",reversal; also recorded: reversed
same,uncoupling effect after CTX treatment,"[4]; co-cultures with Kv1.3 transfected fibroblasts, CTX 100 nM (FIGS. 6f-g)",reversed
Margatoxin (TIINVKCTSPKQCLPPCKAQFGQSAGAKCMNGKCKCYPH),local ERP after local application of MTx,"[5]; pig grafted with transfected cells, basic CL drive 400 ms (FIG. 20a)",220 ms
same,ventricular ERP following local application of MTx,[5],near baseline values
same,ventricular ERP following local application of MTx,[5]; listed as MTx,not different from the control sites
same,local ERP after administration of Mtx,[6]; control group grafted with naive fibroblasts (n=8),did not change significantly
same,ventricular ERP at the site of cell grafting after Margatoxin,"[6]; one animal grafted with Kv1.3 fibroblasts, basic CL 200 ms (FIG. 19a)",reversed and 100 ms
same,local ventricular ERP at the site of cell transplantation after MTx,[6],117 ± 7.70 ms
same,local ventricular ERP at the site of cell transplantation after MTx,[6]; listed as MTx,117 ± 8 ms
